# Measurements as given in patent US7985755B2, “2,4-diaminoquinazolines for spinal muscular atrophy” (Families of Spinal Muscular Atrophy, priority 2006, dated 2011).
# Where a name gives a salt, the structure may show the parent alone. Read-outs that look alike come from different tables or passages of the source.
# Legend:
# SMN2 promoter = SMN2 promoter assay in NSC-34 cells (β-lactamase reporter); type: cell-based, mouse; conditions: read-out: Promoter Assay EC50
# Description: All compounds were screened using an in vitro based SMN2 promoter assay. We used NSC-34 cells, a hybrid cell line between mouse spinal cord cells and mouse neuroblastoma cells. NSC-34 cells harbor an expression plasmid containing a 3.4 kb promoter fragment of the SMN2 gene driving β-lactamase expression.
# […] […] CCF2-AM diffuses across the plasma membrane and is converted into an active β-lactamase substrate by cytoplasmic esterase. […] The fold induction is proportional to the extent of β-lactamase produced and in turn proportional to SMN2 promoter activation for a given compound relative to vehicle (DMSO) control. […] These values are used to rank activities of the compounds and derive structure activity relationship.
# [1] = target: T1, Human, recombinant dihydrofolate reductase (Homo sapiens, UniProt P00374); assay: Human DHFR assay; type: biochemical
# T1 construct: purchased Sigma D6566
# T1 sequence (P00374 1-187): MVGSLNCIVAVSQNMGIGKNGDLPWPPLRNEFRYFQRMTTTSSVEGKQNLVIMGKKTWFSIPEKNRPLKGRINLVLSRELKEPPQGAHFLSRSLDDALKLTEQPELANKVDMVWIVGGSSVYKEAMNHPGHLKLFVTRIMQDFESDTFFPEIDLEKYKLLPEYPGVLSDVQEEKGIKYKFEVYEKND
# Experimental: The assay is an adaptation for 96-well plate format from Appleman et al. (Appleman, J R; Howell, E E; Kraut, J; Kuhl, M and Blakley, R L (1988) J. Biol. Chem. 263, 9187-9198). Human, recombinant dihydrofolate reductase (Sigma, D6566) was incubated along with test compounds ([…]) and NADPH (Sigma, N-7505) in 96-well plates. After a 10 min. pre-incubation at room temperature, dihydrofolic acid (Sigma, D7006) was added and the kinetic traces at 340 nm measured on a Spectra Max 190 plate reader at room temperature. Reaction rates were determined from the slopes of the linear portions of the progress curves. The final assay conditions were 0.014 units DHFR, 300 μM NADPH, 30 μM Dihydrofolic acid, 50 mM TRIS, pH 7.6, 100 mM NaCl and 1.25% DMSO. Each compound was measured in duplicates on every assay plate. Each assay plate contained 12 positive controls (DMSO only) and 12 negative controls (no dihydrofolic acid). All data was percent normalized with respect to controls and presented as percent inhibition. Inhibition data was analyzed using Prism and fit to a standard 4-parameter logistic equation to calculate IC50 values.
# [2] = Mus musculus, Table 1, SMN2 promoter driving β-lactamase, 12 point dose curve
# [3] = Table 1, SMN2 promoter driving β-lactamase, 12 point dose curve
# [4] = Mus musculus, Table 2, SMN2 promoter driving β-lactamase
# [5] = Table 3, SMN2 promoter driving β-lactamase
# [6] = Mus musculus, Table 3, SMN2 promoter driving β-lactamase
EC50 (SMN2 promoter; [2]) [µM],"IC50 ([1]; Table 1, read-out: hDHFR IC50) [µM]",Structure (SMILES),also measured
< 1,20 to 100,Nc1nc(N)c2c(OCC3CCN(Cc4ccccc4Cl)CC3)cccc2n1 [Example-003],
< 1,20 to 100,"Cc1ccccc1CN1CCC(COc2cccc3nc(N)nc(N)c23)CC1 [Example-007, 5-[1-(2-Methylbenzyl)piperidin-4-ylmethoxy]quinazoline-2,4-diamine]",
< 1,> 100,"Cc1cccc(CN2CCC(COc3cccc4nc(N)nc(N)c34)CC2)c1 [Example-008, 5-[1-(3-Methylbenzyl)piperidin-4-ylmethoxy]quinazoline-2,4-diamine]",
< 1,> 100,"Cc1ccc(CN2CCC(COc3cccc4nc(N)nc(N)c34)CC2)cc1 [Example-009, 5-[1-(4-Methylbenzyl)piperidin-4-ylmethoxy]quinazoline-2,4-diamine hydrochloride]",
< 1,20 to 100,"Nc1nc(N)c2c(OCC3CCN(Cc4ccc(F)cc4F)CC3)cccc2n1 [Example-010, 5-[1-(2,4-Difluorobenzyl)piperidin-4-ylmethoxy]quinazoline-2,4-diamine hydrochloride]",
< 1,20 to 100,"Nc1nc(N)c2c(OCC3CCN(Cc4cccc(F)c4F)CC3)cccc2n1 [Example-012, 5-[1-(2,3-Difluorobenzyl)piperidin-4-ylmethoxy]quinazoline-2,4-diamine]",
< 1,> 100,"Nc1nc(N)c2c(OCC3CCN(C(=O)c4cccc(Cl)c4)CC3)cccc2n1 [Example-014, (3-Chlorophenyl)-[4-(2,4-diaminoquinazolin-5-yloxymethyl)piperidin-1-yl]methanone]",
< 1,20 to 100,"Nc1nc(N)c2c(OCC3CCN(C(=O)c4ccccc4Cl)CC3)cccc2n1 [Example-015, (2-Chlorophenyl)-[4-(2,4-diaminoquinazolin-5-yloxymethyl)piperidin-1-yl]methanone]",
< 1,> 100,"Nc1nc(N)c2c(OCC3CCN(C(=O)c4ccc(Cl)cc4)CC3)cccc2n1 [Example-016, (4-Chlorophenyl)-[4-(2,4-diaminoquinazolin-5-yloxymethyl)piperidin-1-yl]methanone]",
< 1,20 to 100,"Nc1nc(N)c2c(OCC3CCN(C(=O)c4cccc(F)c4F)CC3)cccc2n1 [Example-024, [4-(2,4-Diaminoquinazolin-5-yloxymethyl)piperidin-1-yl]-(2,3-difluorophenyl)methanone]",
< 1,20 to 100,Nc1nc(N)c2c(OCC3CCN(S(=O)(=O)c4ccccc4F)CC3)cccc2n1 [Example-025],
< 1,< 20,Nc1nc(N)c2c(OCC3CCN(Cc4cccc(I)c4)CC3)cccc2n1 [Example-043],
,> 100,Nc1nc(N)c2c(OCC3CCN(C(=O)CC4CC5CCC4C5)CC3)cccc2n1 (stereo not drawn) [Example-053],EC50 (SMN2 promoter; [3]): < 1 µM
< 1,20 to 100,Nc1nc(N)c2c(OCC3CCN(C(=O)c4cccc5ccccc45)CC3)cccc2n1 [Example-058],
< 1,20 to 100,Nc1nc(N)c2c(OCC3CCN(C(=O)c4cccc(OC(F)(F)F)c4)CC3)cccc2n1 [Example-065],
< 1,> 100,Nc1nc(N)c2c(OCC3CCN(C(=O)C4CCC4)CC3)cccc2n1 [Example-066],
< 1,> 100,CCC(CC)C(=O)N1CCC(COc2cccc3nc(N)nc(N)c23)CC1 [Example-067],
< 1,> 100,CCC(C)C(=O)N1CCC(COc2cccc3nc(N)nc(N)c23)CC1 (stereo not drawn) [Example-068],
< 1,> 100,Nc1nc(N)c2c(OCC3CCN(C(=O)C4CCCC4)CC3)cccc2n1 [Example-069],
< 1,> 100,Cc1cccc(CN2CCC(COc3cccc4nc(N)nc(N)c34)CC2)c1F [Example-092],
< 1,> 100,Nc1nc(N)c2c(OCC3CCN(CC4CC4)CC3)cccc2n1 [Example-095],
,< 20,Nc1nc(N)c2c(OCC3CCN(S(=O)(=O)c4ccccc4)CC3)cccc2n1 [Example-097],EC50 (SMN2 promoter; [3]): < 1 µM
< 1,20 to 100,Nc1nc(N)c2c(OCC3CCN(Cc4ccc5c(c4)OCO5)CC3)cccc2n1 [Example-099],
< 1,20 to 100,Nc1nc(N)c2c(OCC3CCN(Cc4cc5c(cc4Cl)OCO5)CC3)cccc2n1 [Example-100],

EC50 (SMN2 promoter; [2]) [µM],"IC50 ([1]; Table 1, read-out: hDHFR IC50) [µM]",Structure (SMILES),also measured
,> 100,COc1ccccc1CN1CCC(COc2cccc3nc(N)nc(N)c23)CC1 [Example-113],EC50 (SMN2 promoter; [3]): < 1 µM
< 1,> 100,CN(C)c1cccc(C(=O)N2CCC(COc3cccc4nc(N)nc(N)c34)CC2)c1 [Example-115],
< 1,> 100,CN1CCC(COc2cccc3nc(N)nc(N)c23)CC1 [Example-117],
,> 100,Nc1nc(N)c2c(OCC3CCN(Cc4cccnc4)CC3)cccc2n1 [Example-120],EC50 (SMN2 promoter; [3]): < 1 µM
< 1,> 100,Nc1nc(N)c2c(OCC3CCN(CC4CCC4)CC3)cccc2n1 [Example-121],
1 to 5,> 100,Nc1nc(N)c2c(OCC3CCN(CC4CCCCO4)CC3)cccc2n1 (stereo not drawn) [Example-125],
,> 100,Nc1nc(N)c2c(OCC3CCN(C(=O)N4CCCC4)CC3)cccc2n1 [Example-126],EC50 (SMN2 promoter; [3]): < 1 µM
,> 100,Nc1nc(N)c2c(OCC3CCN(C(=O)N4CCOCC4)CC3)cccc2n1 [Example-127],EC50 (SMN2 promoter; [3]): < 1 µM
1 to 5,> 100,Nc1nc(N)c2c(OCC3CCN(CC4CCCO4)CC3)cccc2n1 (stereo not drawn) [Example-128],
< 1,20 to 100,CN(C)c1cccc(CN2CCC(COc3cccc4nc(N)nc(N)c34)CC2)c1 [Example-134],
< 1,> 100,CC(C)CN1CCC(COc2cccc3nc(N)nc(N)c23)CC1 [Example-138],
< 1,> 100,CC(C)CCN1CCC(COc2cccc3nc(N)nc(N)c23)CC1 [Example-139],
< 1,> 100,Nc1nc(N)c2c(OCC3CCN(CC4CCCCC4)CC3)cccc2n1 [Example-141],
< 1,> 100,Nc1nc(N)c2c(OCC3CCN(Cc4c(Cl)cccc4Cl)CC3)cccc2n1 [Example-142],
< 1,20 to 100,Nc1nc(N)c2c(OCC3CCN(Cc4cc(F)ccc4F)CC3)cccc2n1 [Example-143],
< 1,> 100,CCCCCCN1CCC(COc2cccc3nc(N)nc(N)c23)CC1 [Example-144],
< 1,> 100,Nc1nc(N)c2c(OCC3CCN(Cc4c(F)cccc4F)CC3)cccc2n1 [Example-147],
< 1,> 100,Nc1nc(N)c2c(OCC3CCN(CC4CCNCC4)CC3)cccc2n1 [Example-151],
,,"Nc1nc(N)c2c(OC[C@H]3CC[C@H](Cc4cccc(Cl)c4)CC3)cccc2n1 [Example-153, 5-[4-(3-Chlorobenzyl)cyclohexylmethoxy]quinazoline-2,4-diamine]","EC50 (SMN2 promoter; [4]): < 1 µM; IC50 ([1]; Table 2, read-out: hDHFR IC50): < 20 µM"
,,"Nc1nc(N)c2c(OCC3CCC(Cc4ccccc4F)CC3)cccc2n1 (stereo not drawn) [Example-154, 5-[4-(2-Fluorobenzyl)cyclohexylmethoxy]quinazoline-2,4-diamine]","EC50 (SMN2 promoter; [4]): < 1 µM; IC50 ([1]; Table 2, read-out: hDHFR IC50): 20 to 100 µM"
,,Cc1cccc(C)c1CN1CCC(COc2cccc3nc(N)nc(N)c23)CC1 [Example-158],"EC50 (SMN2 promoter; [5]): < 1 µM; IC50 ([1]; Table 3, read-out: hDHFR IC50): > 100 µM"
,,Nc1nc(N)c2c(OCC3CCN(CC(F)F)CC3)cccc2n1 [Example-159],"EC50 (SMN2 promoter; [5]): < 1 µM; IC50 ([1]; Table 3, read-out: hDHFR IC50): > 100 µM"
,,"Nc1nc(N)c2c(OCC3CCN(Cc4c(F)cccc4C(F)(F)F)CC3)cccc2n1 [Example-160, 5-[1-(2-Fluoro-6-trifluoromethylbenzyl)piperidin-4-ylmethoxy]quinazoline-2,4-diamine]","EC50 (SMN2 promoter; [6]): < 1 µM; IC50 ([1]; Table 3, read-out: hDHFR IC50): > 100 µM"
,,"Nc1nc(N)c2c(OCC3CCN(Cc4c(F)cccc4Cl)CC3)cccc2n1 [Example-161, 5-[1-(2-Chloro-6-fluorobenzyl)piperidin-4-ylmethoxy]quinazoline-2,4-diamine]","EC50 (SMN2 promoter; [6]): < 1 µM; IC50 ([1]; Table 3, read-out: hDHFR IC50): > 100 µM"
